Measured values reported in patent US10857246B2, “Nuclear imaging and radiotherapeutics agents targeting carbonic anhydrase IX and uses thereof” (THE JOHNS HOPKINS UNIVERSITY, priority 2015, dated 2020).
“And” between values parts separate entries of the source, which are not always exact repeats. Equal entries are not always repeated.

Tested on: CAIX-expressing SK-RC-52 tumors
Experiment: Biodistribution in mice bearing SK-RC-52 xenografts
Assay type: in vivo
Details: for Biodistribution Bladder / Biodistribution Blood / Biodistribution Brain / Biodistribution Fat / Biodistribution Heart / Biodistribution Kidney / Biodistribution Liver / Biodistribution Lung / Biodistribution Muscle / Biodistribution Pancreas / Biodistribution Small intestine / Biodistribution Spleen / Biodistribution Stomach / Biodistribution Tumor / Tumor/Kidney ratio / Tumor/Blood ratio / Tumor/Muscle ratio: 740 kBq i.v.
Protocol: Animal experiments were performed in accordance with protocols approved by the Johns Hopkins Animal Care and Use Committee (ACUC). Six-week-old female NOD/SCID mice were purchased from the Animal Resource Core of the Sidney Kimmel Comprehensive Cancer Center of Johns Hopkins and were subcutaneously injected in the lower left flank or upper right flank with 1×10^6 SK-RC-52 cells in RPMI 1640 GlutaMAX™ media (Life Technologies, Frederick, Md.) supplemented with 1% fetal bovine serum (FBS). Mice were monitored for tumor size and used for SPECT/CT imaging when the size of the tumor reached 100 mm^3.
Mice bearing SK-RC-52 xenografts at lower left flank were injected intravenously with 740 kBq (20 μCi) of [^111In]XYIMSR-01, or [^177Lu]XYIMSR-01 in 200 μL of PBS. For competitive blocking, same tumor bearing mice were injected with 740 kBq (20 μCi) of [^111In]XYIMSR-01 and 200 nmole of 8 in 200 μL of PBS. At 1 h, 4 h, 8 h, 24 h and 48 h post-injection, mice were sacrificed by cervical dislocation and the blood was immediately collected by cardiac puncture. Heart, lungs, pancreas, spleen, fat, brain, muscle, small intestines, liver, stomach, kidney, urinary bladder, and tumor were collected. Each organ was weighed and the tissue radioactivity was measured with an automated gamma counter (1282 Compugamma CS, Pharmacia/LKBNuclear, Inc., Mt. Waverly, Vic. Australia). The percentage of injected dose per gram of tissue (% ID/g) was calculated by comparison with samples of a standard dilution of the initial dose. All measurements were corrected for radioactive decay.
Data were expressed as mean±standard deviation (SD). Prism software (GraphPAD, San Diego, Calif.) was used to determine statistical significance. Statistical significance was calculated using a paired t test. P-values <0.0001 were considered significant.
Mice bearing SK-RC-52 xenografts within the lower left flank were injected intravenously with 740 kBq (20 μCi) of [Al^18F]XYIMSR-04 in 200 μL of PBS. At specific 1 hour time point mentioned in the paper, mice (n=5) were sacrificed by cervical dislocation and the blood was immediately collected by cardiac puncture. Heart, lungs, pancreas, spleen, fat, brain, muscle, small intestines, liver, bone, stomach, kidney, urinary bladder, and tumor were collected. Each organ was weighed and the tissue radioactivity was measured with an automated gamma counter (1282 Compugamma CS, Pharmacia/LKBNuclear, Inc., Mt. Waverly, Vic. Australia). The percentage of injected dose per gram of tissue (% ID/g) was calculated by comparison with samples of a standard dilution of the initial dose. All measurements were corrected for radioactive decay. Data were expressed as mean±standard deviation (SD). Prism software (GraphPAD, San Diego, Calif.) was used to determine statistical significance. Statistical significance was calculated using a paired t test. P-values <0.0001 were considered significant.
Mice bearing SK-RC-52 xenografts within the upper right flank were injected intravenously with 740 kBq (20 μCi) of [^64Cu]XYIMSR-06 in 200 μL of PBS. For in vivo competition (binding specificity) studies, tumor-bearing mice were injected with 740 kBq (20 μCi) of [^64Cu]XYIMSR-06 and 200 nmole of 8 in 200 μL of PBS concurrently. At specific times after injection (1 h, 4 h, 8 h and 24 h), mice (n=5) were sacrificed by cervical dislocation with blood immediately collected by cardiac puncture. Heart, lungs, pancreas, spleen, fat, brain, muscle, small intestines, liver, stomach, kidney, urinary bladder, and tumor were also collected. Each organ was weighed and the tissue radioactivity was measured with an automated gamma counter (1282 Compugamma CS, Pharmacia/LKBNuclear, Inc., Mt. Waverly, Vic. Australia). The percentage of injected dose per gram of tissue (% ID/g) was calculated by comparison with samples of a standard dilution of the initial dose. All measurements were corrected for radioactive decay. Data were expressed as mean±standard deviation (SD). […]

`CC(CCC(=O)N[C@@H](CC(=O)N[C@@H](CC(=O)N[C@@H](CCCCn1cc(CCCC(=O)Nc2nnc(S(N)(=O)=O)s2)nn1)C(=O)NCCOCCOCCNC(=S)Nc1ccc(CC2CN(CC(=O)[O-])CCN(CC(=O)[O-])CCN2CC(=O)O)cc1)C(=O)O)C(=O)O)(c1ccc(O)cc1)c1ccc(O)cc1.[64Cu+2]` (stereo partly drawn) [[^64Cu]XYIMSR-06] was tested, and the “Biodistribution Bladder” value (1 h post-injection) was 11.12 % ID/g, the “Biodistribution Blood” value (1 h post-injection) was 0.66 % ID/g and the “Biodistribution Brain” value (1 h post-injection) was 1.46 % ID/g. For the same molecule, the “Biodistribution Fat” value (1 h post-injection) was 0.80 % ID/g, the “Biodistribution Heart” value (1 h post-injection) was 3.41 % ID/g and the “Biodistribution Kidney” value (1 h post-injection) was 33.65 % ID/g. The “Biodistribution Liver” value (1 h post-injection) was 3.25 % ID/g, the “Biodistribution Lung” value (1 h post-injection) was 25.52 % ID/g and the “Biodistribution Muscle” value (1 h post-injection) was 1.28 % ID/g. The “Biodistribution Pancreas” value (1 h post-injection) was 2.94 % ID/g, the “Biodistribution Small intestine” value (1 h post-injection) was 7.35 % ID/g and the “Biodistribution Spleen” value (1 h post-injection) was 0.36 % ID/g. The “Biodistribution Stomach” value (1 h post-injection) was 14.80 % ID/g, the “Biodistribution Tumor” value (1 h post-injection) was 14.47 % ID/g and the Tumor/Kidney ratio (1 h post-injection) was 0.4. For the same molecule, the “Biodistribution Bladder” value (4 h post-injection) was 17.05 % ID/g, the “Biodistribution Blood” value (4 h post-injection) was 0.33 % ID/g and the “Biodistribution Brain” value (4 h post-injection) was 0.29 % ID/g. For the same molecule, the “Biodistribution Fat” value (4 h post-injection) was 0.52 % ID/g, the “Biodistribution Heart” value (4 h post-injection) was 1.78 % ID/g and the “Biodistribution Kidney” value (4 h post-injection) was 19.99 % ID/g. The “Biodistribution Liver” value (4 h post-injection) was 2.18 % ID/g, the “Biodistribution Lung” value (4 h post-injection) was 12.03 % ID/g and the “Biodistribution Muscle” value (4 h post-injection) was 0.70 % ID/g. For the same molecule, the “Biodistribution Pancreas” value (4 h post-injection) was 1.36 % ID/g, the “Biodistribution Small intestine” value (4 h post-injection) was 4.15 % ID/g and the “Biodistribution Spleen” value (4 h post-injection) was 0.24 % ID/g. For the same molecule, the “Biodistribution Stomach” value (4 h post-injection) was 8.19 % ID/g, the “Biodistribution Tumor” value (4 h post-injection) was 19.31 % ID/g and the Tumor/Blood ratio (4 h post-injection) was 57.7. The Tumor/Kidney ratio (4 h post-injection) was 1.0, the Tumor/Muscle ratio (4 h post-injection) was 29.4 and the “Biodistribution Bladder” value (8 h + block (200 nmole of 8)) was 1.45 % ID/g. For the same molecule, the “Biodistribution Blood” value (8 h + block (200 nmole of 8)) was 0.08 % ID/g, the “Biodistribution Brain” value (8 h + block (200 nmole of 8)) was 0.04 % ID/g and the “Biodistribution Fat” value (8 h + block (200 nmole of 8)) was 0.05 % ID/g. For the same molecule, the “Biodistribution Heart” value (8 h + block (200 nmole of 8)) was 0.16 % ID/g, the “Biodistribution Kidney” value (8 h + block (200 nmole of 8)) was 1.82 % ID/g and the “Biodistribution Liver” value (8 h + block (200 nmole of 8)) was 0.55 % ID/g. The “Biodistribution Lung” value (8 h + block (200 nmole of 8)) was 0.77 % ID/g, the “Biodistribution Muscle” value (8 h + block (200 nmole of 8)) was 0.05 % ID/g and the “Biodistribution Pancreas” value (8 h + block (200 nmole of 8)) was 0.14 % ID/g. The “Biodistribution Small intestine” value (8 h + block (200 nmole of 8)) was 0.38 % ID/g, the “Biodistribution Spleen” value (8 h + block (200 nmole of 8)) was 0.14 % ID/g and the “Biodistribution Stomach” value (8 h + block (200 nmole of 8)) was 0.69 % ID/g. The “Biodistribution Tumor” value (8 h + block (200 nmole of 8)) was 2.39 % ID/g, the Tumor/Blood ratio (8 h + block (200 nmole of 8)) was 32.0 and the Tumor/Kidney ratio (8 h + block (200 nmole of 8)) was 1.3. For the same molecule, the Tumor/Muscle ratio (8 h + block (200 nmole of 8)) was 53.0, the “Biodistribution Bladder” value (8 h post-injection) was 7.43 % ID/g and the “Biodistribution Blood” value (8 h post-injection) was 0.13 % ID/g. The “Biodistribution Brain” value (8 h post-injection) was 0.24 % ID/g, the “Biodistribution Fat” value (8 h post-injection) was 0.28 % ID/g and the “Biodistribution Heart” value (8 h post-injection) was 0.65 % ID/g. The “Biodistribution Kidney” value (8 h post-injection) was 8.14 % ID/g, the “Biodistribution Liver” value (8 h post-injection) was 0.99 % ID/g and the “Biodistribution Lung” value (8 h post-injection) was 4.64 % ID/g. The “Biodistribution Muscle” value (8 h post-injection) was 0.21 % ID/g, the “Biodistribution Pancreas” value (8 h post-injection) was 0.47 % ID/g and the “Biodistribution Small intestine” value (8 h post-injection) was 1.98 % ID/g. The “Biodistribution Spleen” value (8 h post-injection) was 0.18 % ID/g, the “Biodistribution Stomach” value (8 h post-injection) was 4.02 % ID/g and the “Biodistribution Tumor” value (8 h post-injection) was 16.74 % ID/g. For the same molecule, the “All other tumor/organ ratios” value (24 h) was > 10.0, the “Biodistribution Bladder” value (24 h + block (200 nmole of 8)) was 0.45 % ID/g and the “Biodistribution Blood” value (24 h + block (200 nmole of 8)) was 0.01 % ID/g. For the same molecule, the “Biodistribution Brain” value (24 h + block (200 nmole of 8)) was 0.02 % ID/g, the “Biodistribution Fat” value (24 h + block (200 nmole of 8)) was 0.01 % ID/g and the “Biodistribution Heart” value (24 h + block (200 nmole of 8)) was 0.08 % ID/g. The “Biodistribution Kidney” value (24 h + block (200 nmole of 8)) was 0.48 % ID/g, the “Biodistribution Liver” value (24 h + block (200 nmole of 8)) was 0.42 % ID/g and the “Biodistribution Lung” value (24 h + block (200 nmole of 8)) was 0.29 % ID/g. For the same molecule, the “Biodistribution Muscle” value (24 h + block (200 nmole of 8)) was 0.04 % ID/g, the “Biodistribution Pancreas” value (24 h + block (200 nmole of 8)) was 0.07 % ID/g and the “Biodistribution Small intestine” value (24 h + block (200 nmole of 8)) was 0.19 % ID/g. For the same molecule, the “Biodistribution Spleen” value (24 h + block (200 nmole of 8)) was 0.11 % ID/g, the “Biodistribution Stomach” value (24 h + block (200 nmole of 8)) was 0.29 % ID/g and the “Biodistribution Tumor” value (24 h + block (200 nmole of 8)) was 1.20 % ID/g. It also gave a Tumor/Blood ratio (24 h + block (200 nmole of 8)) of 27.1, a Tumor/Kidney ratio (24 h + block (200 nmole of 8)) of 2.4 and a Tumor/Muscle ratio (24 h + block (200 nmole of 8)) of 49.0. For the same molecule, the “Biodistribution Bladder” value (24 h post-injection) was 0.34 % ID/g, the “Biodistribution Blood” value (24 h post-injection) was 0.00 % ID/g and the “Biodistribution Brain” value (24 h post-injection) was 0.13 % ID/g. The “Biodistribution Fat” value (24 h post-injection) was 0.03 % ID/g, the “Biodistribution Heart” value (24 h post-injection) was 0.12 % ID/g and the “Biodistribution Kidney” value (24 h post-injection) was 0.90 % ID/g. The “Biodistribution Liver” value (24 h post-injection) was 0.38 % ID/g, the “Biodistribution Lung” value (24 h post-injection) was 1.27 % ID/g and the “Biodistribution Muscle” value (24 h post-injection) was 0.02 % ID/g. The “Biodistribution Pancreas” value (24 h post-injection) was 0.21 % ID/g, the “Biodistribution Small intestine” value (24 h post-injection) was 0.47 % ID/g and the “Biodistribution Spleen” value (24 h post-injection) was 0.09 % ID/g. For the same molecule, the “Biodistribution Stomach” value (24 h post-injection) was 0.65 % ID/g, the “Biodistribution Tumor” value (24 h post-injection) was 6.2 % ID/g and 6.23 % ID/g and the Tumor/Blood ratio (24 h post-injection) was 142.6. For the same molecule, the Tumor/Muscle ratio (24 h post-injection) was 261.3, the “Tumor uptake on co-injection of 200 nmole of 8” value (mouse, in vivo) was “blocked tumor uptake” and the “Radiotracer uptake within liver” value (within 24 h) was “no significant radiotracer uptake within liver”.
